{"source": "ChEMBL document CHEMBL1201862", "about": "“PubChem BioAssay data set” (2004)", "key": {"CHO": {"system": "CHO", "experiment": "CHO cell viability loss, potency – luminescence, cytotoxicity control for TLR9-MyD88 binding inhibitor project, dose response (AID 588339);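 also: compound exposure lasted 48 hours before viability readout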", "assay_type": "functional, cell-based, hamster", "settings": "Cricetulus griseus"}, "[1]": {"molecular_target": "T1, Rac GTPase-activating protein 1 (Homo sapiens, UniProt Q9H0H5)", "T1 sequence (Q9H0H5 whole entry)": "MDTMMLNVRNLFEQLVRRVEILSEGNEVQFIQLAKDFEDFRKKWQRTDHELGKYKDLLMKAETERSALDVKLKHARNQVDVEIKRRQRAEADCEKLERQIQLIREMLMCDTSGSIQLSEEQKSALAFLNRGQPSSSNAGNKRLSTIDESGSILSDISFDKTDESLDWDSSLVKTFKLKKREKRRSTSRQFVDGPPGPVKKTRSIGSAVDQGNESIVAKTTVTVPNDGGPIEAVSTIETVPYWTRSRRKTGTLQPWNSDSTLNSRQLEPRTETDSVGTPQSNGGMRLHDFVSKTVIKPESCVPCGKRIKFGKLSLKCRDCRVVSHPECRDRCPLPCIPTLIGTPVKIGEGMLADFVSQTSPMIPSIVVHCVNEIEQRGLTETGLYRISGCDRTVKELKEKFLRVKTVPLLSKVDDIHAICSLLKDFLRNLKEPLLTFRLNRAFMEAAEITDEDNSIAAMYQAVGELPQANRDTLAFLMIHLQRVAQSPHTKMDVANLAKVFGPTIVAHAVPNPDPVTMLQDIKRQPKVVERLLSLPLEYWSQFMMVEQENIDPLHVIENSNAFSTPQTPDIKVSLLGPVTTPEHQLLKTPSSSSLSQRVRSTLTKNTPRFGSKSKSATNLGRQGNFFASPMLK", "experiment": "blockers of MgcRacGAP-driven Rac1 GTP hydrolysis – biochemical, ADP Hunter fluorescence, primary and confirmatory, confirmation (AID 624330)", "assay_type": "functional"}, "[2]": {"experiment": "Luminescence-based dose response cell-based high throughput screening assay for cytotoxic compounds using the IEC-6 intestinal epithelial cell line. [Related pubchem assays: 1858 (Summary AID.), 1825 (Counterscreen.), 1907 (Confirmation screen.)]", "assay_type": "functional"}, "[3]": {"experiment": "blockers of HIV-1 envelope-mediated cell-cell fusion – cherry-pick, dose response (AID 652057)", "assay_type": "functional, cell-based"}, "[4]": {"experiment": "HIV-1 AD8 envelope cell-cell fusion blockers – cherry-pick, dose response (AID 652062);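 also: luciferase signal from cell-cell fusion driven by HIV-1 clade B AD8 Env; potency is for inhibitors of fusion seen as a drop in luminescence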", "assay_type": "functional, cell-based"}, "[5]": {"molecular_target": "T2, RNA-binding protein pos-1 (Caenorhabditis elegans, UniProt G5EF15)", "T2 sequence (G5EF15 whole entry)": "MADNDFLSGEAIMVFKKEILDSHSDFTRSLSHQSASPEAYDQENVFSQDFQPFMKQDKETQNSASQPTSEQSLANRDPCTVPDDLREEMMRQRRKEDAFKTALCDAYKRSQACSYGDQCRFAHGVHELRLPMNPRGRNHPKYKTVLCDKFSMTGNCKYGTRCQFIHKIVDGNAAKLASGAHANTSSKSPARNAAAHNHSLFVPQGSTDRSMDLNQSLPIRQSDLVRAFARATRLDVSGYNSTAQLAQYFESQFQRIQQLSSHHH", "experiment": "disruptors of C. elegans POS-1 RNA interaction – biochemical, fluorescence polarization, dose response (AID 1964);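 also: purified POS-1 fused to maltose binding protein made in E. coli; potency of compounds blocking POS-1 binding to fluorescent RNA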"}, "[6]": {"molecular_target": "Eukaryotic translation initiation factor 4E (Mus musculus, UniProt P63073)", "sequence (P63073 whole entry)": "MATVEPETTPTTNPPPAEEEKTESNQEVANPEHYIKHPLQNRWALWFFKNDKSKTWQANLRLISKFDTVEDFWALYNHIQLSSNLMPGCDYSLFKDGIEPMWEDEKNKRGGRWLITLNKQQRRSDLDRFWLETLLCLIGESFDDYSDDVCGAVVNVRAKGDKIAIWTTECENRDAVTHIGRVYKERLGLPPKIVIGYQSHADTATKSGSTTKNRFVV", "experiment": "blockers of eIF4G binding by eIF4E – biochemical, TR-FRET, dose response (AID 855);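 also: potency for disrupting eIF4E binding to eIF4GI seen as loss of FRET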", "assay_type": "functional"}, "[7]": {"molecular_target": "T3, Ubiquitin-conjugating enzyme E2 N (Homo sapiens, UniProt P61088)", "T3 sequence (P61088 whole entry)": "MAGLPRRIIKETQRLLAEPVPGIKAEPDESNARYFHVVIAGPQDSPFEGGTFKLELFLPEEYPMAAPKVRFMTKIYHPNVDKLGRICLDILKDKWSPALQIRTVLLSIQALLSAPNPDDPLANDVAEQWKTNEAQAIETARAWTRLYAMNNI", "assay_type": "functional"}, "[8]": {"experiment": "viability loss in CEM21 cells – cell-based, CellTiter-Glo luminescence, cherry-picked, cytotoxicity control for viral fusion inhibitor project, dose response (AID 652042);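 also: potency for signal decrease meaning cytotoxicity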", "assay_type": "functional"}, "Caspase-3": {"molecular_target": "T4, Caspase-3 (Homo sapiens, UniProt P42574)", "T4 sequence (P42574 whole entry)": "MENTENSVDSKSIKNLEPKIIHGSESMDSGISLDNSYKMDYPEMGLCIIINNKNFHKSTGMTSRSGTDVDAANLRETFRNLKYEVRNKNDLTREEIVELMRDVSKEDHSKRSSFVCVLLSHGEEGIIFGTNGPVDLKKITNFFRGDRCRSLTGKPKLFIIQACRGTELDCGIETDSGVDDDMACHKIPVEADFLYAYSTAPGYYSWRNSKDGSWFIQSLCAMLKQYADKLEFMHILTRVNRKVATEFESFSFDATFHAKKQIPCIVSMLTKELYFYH", "assay_type": "functional"}, "[9]": {"molecular_target": "Tyrosyl-DNA phosphodiesterase 2 (Homo sapiens, UniProt O95551)", "sequence (O95551 whole entry)": "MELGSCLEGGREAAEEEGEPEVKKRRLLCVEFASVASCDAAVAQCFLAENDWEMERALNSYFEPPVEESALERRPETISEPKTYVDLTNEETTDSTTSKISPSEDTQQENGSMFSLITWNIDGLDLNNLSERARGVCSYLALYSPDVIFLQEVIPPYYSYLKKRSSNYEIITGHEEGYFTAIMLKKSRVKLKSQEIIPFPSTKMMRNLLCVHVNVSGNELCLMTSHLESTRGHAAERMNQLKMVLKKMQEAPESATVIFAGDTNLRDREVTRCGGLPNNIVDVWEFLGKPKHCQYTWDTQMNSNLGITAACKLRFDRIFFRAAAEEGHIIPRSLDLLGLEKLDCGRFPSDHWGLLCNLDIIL", "experiment": "potency against TDP2 phosphodiesterase activity – biochemical, epi absorbance, IC50, dose response (AID 743297)"}, "[10]": {"experiment": "viability of PTEN-deleted HCT116 cells – cell-based, HCT116 PTEN knockout, dose response (AID 1047);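 also: HCT116 colon tumor cells with PTEN knocked out; cells exposed to compound for 60 hours before readout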", "assay_type": "functional"}, "[11]": {"molecular_target": "Peroxisome proliferator-activated receptor gamma/Nuclear receptor coactivator 1 (Homo sapiens, UniProt P37231)", "sequence (P37231 whole entry)": "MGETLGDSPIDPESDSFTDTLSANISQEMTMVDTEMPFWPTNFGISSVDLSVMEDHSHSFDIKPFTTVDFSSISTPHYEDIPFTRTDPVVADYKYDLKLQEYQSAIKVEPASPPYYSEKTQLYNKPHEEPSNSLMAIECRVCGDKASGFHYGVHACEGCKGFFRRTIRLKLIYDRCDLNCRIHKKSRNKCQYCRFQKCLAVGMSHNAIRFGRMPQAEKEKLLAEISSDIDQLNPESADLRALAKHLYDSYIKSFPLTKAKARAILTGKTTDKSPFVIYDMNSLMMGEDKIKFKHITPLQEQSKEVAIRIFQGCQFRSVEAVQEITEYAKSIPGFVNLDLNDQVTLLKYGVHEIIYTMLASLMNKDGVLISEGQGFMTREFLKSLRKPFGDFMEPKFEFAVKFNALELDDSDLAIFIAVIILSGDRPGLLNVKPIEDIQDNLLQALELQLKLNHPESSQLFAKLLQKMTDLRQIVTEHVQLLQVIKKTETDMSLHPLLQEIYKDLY", "sequence (Q15788 whole entry, further chain)": "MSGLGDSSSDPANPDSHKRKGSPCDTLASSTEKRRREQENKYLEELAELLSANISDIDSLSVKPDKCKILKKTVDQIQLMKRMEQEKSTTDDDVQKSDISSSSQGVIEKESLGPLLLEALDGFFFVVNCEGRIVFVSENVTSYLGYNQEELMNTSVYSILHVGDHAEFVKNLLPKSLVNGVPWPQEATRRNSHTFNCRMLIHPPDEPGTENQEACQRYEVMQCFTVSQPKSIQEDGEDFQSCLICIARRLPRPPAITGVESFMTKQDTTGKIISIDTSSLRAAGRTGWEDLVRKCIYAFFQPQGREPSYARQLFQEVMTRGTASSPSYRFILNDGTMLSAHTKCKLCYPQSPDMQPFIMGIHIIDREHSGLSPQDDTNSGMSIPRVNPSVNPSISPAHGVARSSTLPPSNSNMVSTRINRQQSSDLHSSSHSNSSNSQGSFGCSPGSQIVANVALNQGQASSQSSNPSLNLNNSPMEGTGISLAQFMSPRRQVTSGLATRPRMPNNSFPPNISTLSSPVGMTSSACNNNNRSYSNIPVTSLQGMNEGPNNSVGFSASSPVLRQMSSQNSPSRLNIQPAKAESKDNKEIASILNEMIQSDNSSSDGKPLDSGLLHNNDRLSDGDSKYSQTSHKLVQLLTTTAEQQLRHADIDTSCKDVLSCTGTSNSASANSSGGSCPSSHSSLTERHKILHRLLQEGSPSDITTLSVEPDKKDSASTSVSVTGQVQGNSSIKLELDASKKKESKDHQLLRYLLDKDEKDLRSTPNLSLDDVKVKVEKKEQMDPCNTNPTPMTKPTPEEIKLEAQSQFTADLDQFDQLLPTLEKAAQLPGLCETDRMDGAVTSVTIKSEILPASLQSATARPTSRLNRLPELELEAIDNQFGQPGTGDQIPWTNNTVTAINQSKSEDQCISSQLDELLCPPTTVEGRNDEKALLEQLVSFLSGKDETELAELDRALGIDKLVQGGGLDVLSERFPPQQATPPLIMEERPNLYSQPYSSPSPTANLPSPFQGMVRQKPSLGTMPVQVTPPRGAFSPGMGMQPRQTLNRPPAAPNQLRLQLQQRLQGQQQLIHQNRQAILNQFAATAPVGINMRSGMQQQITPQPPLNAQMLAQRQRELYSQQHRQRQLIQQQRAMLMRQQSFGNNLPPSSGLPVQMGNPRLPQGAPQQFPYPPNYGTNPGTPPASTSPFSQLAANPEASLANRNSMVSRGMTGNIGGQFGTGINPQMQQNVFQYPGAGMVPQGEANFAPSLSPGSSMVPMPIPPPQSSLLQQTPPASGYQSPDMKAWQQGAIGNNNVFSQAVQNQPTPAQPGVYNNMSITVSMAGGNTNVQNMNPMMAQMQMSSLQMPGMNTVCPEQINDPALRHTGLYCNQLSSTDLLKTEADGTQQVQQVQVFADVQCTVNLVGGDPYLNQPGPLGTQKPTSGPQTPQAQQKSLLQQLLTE", "assay_type": "functional"}, "Genome polyprotein": {"molecular_target": "Genome polyprotein (dengue virus type 2, UniProt P29990)", "sequence (P29990 2492-3391 limits assumed)": "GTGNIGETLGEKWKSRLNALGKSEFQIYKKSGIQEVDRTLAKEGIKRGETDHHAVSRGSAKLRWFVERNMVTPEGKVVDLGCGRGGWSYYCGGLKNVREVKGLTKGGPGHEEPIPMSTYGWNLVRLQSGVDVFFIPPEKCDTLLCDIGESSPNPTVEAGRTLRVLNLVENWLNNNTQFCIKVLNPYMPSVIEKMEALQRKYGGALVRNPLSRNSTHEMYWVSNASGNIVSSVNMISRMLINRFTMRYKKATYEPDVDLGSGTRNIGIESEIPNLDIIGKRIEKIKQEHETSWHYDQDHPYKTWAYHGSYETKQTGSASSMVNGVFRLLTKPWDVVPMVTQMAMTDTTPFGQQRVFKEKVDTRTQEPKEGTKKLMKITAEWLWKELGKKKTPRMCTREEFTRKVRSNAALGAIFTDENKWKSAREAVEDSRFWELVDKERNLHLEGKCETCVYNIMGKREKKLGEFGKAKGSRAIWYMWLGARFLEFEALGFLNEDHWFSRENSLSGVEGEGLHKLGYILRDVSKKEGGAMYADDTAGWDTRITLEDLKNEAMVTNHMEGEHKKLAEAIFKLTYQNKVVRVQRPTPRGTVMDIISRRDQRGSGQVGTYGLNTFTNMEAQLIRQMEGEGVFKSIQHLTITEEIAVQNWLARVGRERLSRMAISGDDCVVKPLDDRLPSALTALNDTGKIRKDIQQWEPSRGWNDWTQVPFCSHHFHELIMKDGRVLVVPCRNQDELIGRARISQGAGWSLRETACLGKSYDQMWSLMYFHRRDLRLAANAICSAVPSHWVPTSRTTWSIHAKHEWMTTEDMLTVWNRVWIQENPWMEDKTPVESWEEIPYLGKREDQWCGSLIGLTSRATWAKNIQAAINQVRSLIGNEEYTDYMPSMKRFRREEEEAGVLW", "experiment": "flavivirus cap methylation enzyme inhibition – biochemical, confirmation dose response, primary screen (AID 588689)", "assay_type": "functional"}}, "note": "Activity calls are given as the source filed them."}
{"compound": "O=C(Nc1ccccc1Cl)/C(Cl)=C(\\Cl)[S+]([O-])c1ccccc1", "note": "(centres undefined)", "values": [{"measurement": "IC50", "setting": "CHO", "value": "1.18 µM (active)"}, {"measurement": "IC50", "setting": "[1]", "value": "22.8 µM (active)"}, {"measurement": "IC50", "setting": "[2]", "value": "2.52 µM (active)"}]}
{"compound": "CCCCCCCCCCCCCCCCn1cc[n+](C)c1", "values": [{"measurement": "AC50", "setting": "[3]", "value": "22 µM (active)"}, {"measurement": "AC50", "setting": "[4]", "value": "5.26 µM (active)"}, {"measurement": "EC50", "setting": "[5]", "value": "> 300 µM (not active)"}, {"measurement": "IC50", "setting": "[6]", "value": "12.9 µM (active)"}, {"measurement": "IC50", "setting": "[7]", "value": "> 20 µM (inactive)"}, {"measurement": "AC50", "setting": "[8]", "value": "5.2 µM (active)"}]}
{"compound": "O=C(NC1(O)C(=O)c2ccccc2C1=O)c1ccccc1", "values": [{"measurement": "IC50", "setting": "Caspase-3", "value": "69.9 µM (active)"}, {"measurement": "IC50", "setting": "[9]", "value": "3.27 µM (active)"}]}
{"compound": "Cc1cc(C)nc(/N=c2/ssnc2Cl)c1", "values": [{"measurement": "EC50", "setting": "[10]", "value": "52.3 µM (active)"}, {"measurement": "EC50", "setting": "[11]", "value": "> 79.4 µM (not active)"}]}
{"compound": "Cc1ccc(C)c(S(=O)(=O)/N=C2\\C=C(NS(=O)(=O)c3ccccc3)C(=O)c3ccccc32)c1", "values": [{"measurement": "IC50", "setting": "Genome polyprotein", "value": "97.8 µM (active)"}]}
